Reference: publication PMC9315981, “N-Phenacyldibromobenzimidazoles—Synthesis Optimization and Evaluation of Their Cytotoxic Activity” (Molecules, 2022)
Like-named read-outs stand apart in the source and are kept apart here.

Tests used:
[1] = test system: MCF-7 (breast adenocarcinoma); assay: MTT-based viability assay, MCF-7; assay type: cell-based, human; settings: for EC50: Homo sapiens, MCF7, MTT, 48 h of treatment, read-out: EC50 ± SD, MCF-7; for SI (selectivity index), MCF-7: SI = EC50 for normal MRC-5 line/EC50 for MCF-7
Method: (§1) To evaluate the cytotoxic activity of compounds 4a–j and 5a–5j, we performed an MTT test for three tumor cell lines, i.e.,: MCF-7 (breast adenocarcinoma), A-549 (lung adenocarcinoma), CCRF-CEM (acute lymphoblastic leukemia), and one normal cell line, MRC-5 (normal lung fibroblasts). The EC50 values, describing the half maximal effective concentration of each tested compound, were calculated and are summarized in Table 4. The representative sigmoidal dose–response curves are shown in Figure S2 (see Supporting Information S2).
(§2) CCRF-CEM (ECACC 85112105) human acute lymphoblastic leukaemia and MRC-5 pd30 Human fetal lung fibroblasts (ECACC 05090501) were purchased from European Collection of Authenticated Cell Cultures, whereas A-549 (ATCC CCL 185) human lung carcinoma and MCF-7 (ATCC HTB-22) human breast adenocarcinoma cell line were purchased from American Type Culture Collection. A-549 and MCF-7 cell lines were cultured in high glucose DMEM (Biowest) supplemented with 10% fetal bovine serum (Biowest), 2 mM L-glutamine and antibiotics (100 U/mL penicillin, 100 µg/mL streptomycin). CCRF-CEM were cultured in RPMI 1640 supplemented with 10% fetal bovine serum (EuroClone), 2 mM L-glutamine and antibiotics (100 U/mL penicillin, 100 µg/mL streptomycin). MRC-5 pd30 human fibroblasts (ECACC) were cultured in MEME, Minimum Essential Medium Eagle (Merck) supplemented with 10% fetal bovine serum (Merck), 2 mM l-glutamine, antibiotics (100 U mL^−1 penicillin, 100 μg mL^−1 streptomycin, Merck) and 1% non-essential amino-acids (Merck). Cells were grown in 75 cm^2 cell culture flasks (Sarstedt, Nümbrecht, Germany), in a humidified atmosphere of CO2/air (5/95%) at 37 °C. All the experiments were performed in exponentially growing cultures. Stock solution of tested compounds were prepared in DMSO and stored in −20 °C for maximum one month. For the cytotoxicity studies, stock solutions were diluted 200-fold with the proper culture medium to obtain the final concentrations. For cytotoxicity studies 2-fold serial dilutions of the tested compounds were prepared in the proper medium in the range from 3.125 µM to 200 µM.
(§3) After incubation with the test compounds, MTT test was performed as described previously. Optical densities were measured at 570 nm using BioTek microplate reader. All measurements were carried out in a minimum of three replicates.

[2] = test system: A-549 (lung adenocarcinoma); assay: MTT-based viability assay, A-549; assay type: cell-based; settings: Homo sapiens, A549, 48 h of treatment, read-out: EC50 ± SD, A-549
Method: as §1, §2, §3

[3] = test system: CCRF-CEM (acute lymphoblastic leukemia); assay: MTT-based viability assay, CCRF-CEM; assay type: cell-based, human; settings: for EC50: Homo sapiens, CCRF-CEM, MTT, 48 h of treatment, read-out: EC50 ± SD, CCRF-CEM; for SI (selectivity index), CCRF-CEM: SI = EC50 for normal MRC-5 line/EC50 for CCRF-CEM
Method: as §1, §2, §3

[4] = test system: MRC-5 (normal lung fibroblasts); assay: MTT-based viability assay, MRC-5; assay type: cell-based; settings: Homo sapiens, MRC5, 48 h of treatment, read-out: EC50 ± SD, MRC-5
Method: as §1, §2, §3

[5] = Solubility in DMSO (stock preparation); assay type: physicochemical
Text: However, among the tested compounds, the highest selectivity index was obtained for 5a (2.04) for MCF-7, respectively.

[6] = test system: MCF-7 (breast adenocarcinoma); design: method as in PMID 28340404; settings: determined previously; read-out: EC50 ± SD, MCF-7; cited from earlier work
[7] = test system: CCRF-CEM (acute lymphoblastic leukemia); design: method as in PMID 28340404; settings: determined previously; read-out: EC50 ± SD, CCRF-CEM; cited from earlier work
CCRF-CEM cells = assay: Detection of apoptosis by flow cytometry (annexin V-FITC/PI); assay type: cell-based, human; settings: 48 h; for induction of apoptosis: annexin V binding
Method: CCRF-CEM cells were seeded in 24-well plates at 2 × 10^5 cells/well and treated with the tested compounds used in 15 µM, 30 µM, and 45 µM concentrations. After exposure to the examined compounds, the cells were collected, centrifugated at 200× g at 4 °C for 5 min, washed twice with cold phosphate–buffered saline (PBS), and subsequently suspended in binding buffer. Subsequently, 100-μL aliquots of the cell suspension were labelled according to the kit manufacturer’s instructions. Briefly, annexin V-fluorescein isothiocyanate, and propidium iodide (BD Biosciences, Pharmingen, San Diego, CA, USA) were added to the cell suspension, and the mixture was vortexed and then incubated for 15 min at RT in the dark. A cold binding buffer (400 μL) was then added and the cells were vortexed again and kept on ice. Flow cytometric measurements were performed within 1 h after labeling. Viable, necrotic, early, and late apoptotic cells were detected by FACSCanto II flow cytometer (BD Biosciences, San Diego, CA, USA) and analysed using BD FACSDiva software.
Figure 2 Effect of compounds 4f, 5g, and 5j on the progression of apoptosis/necrosis in CCRF-CEM. Percentage of viable, early, and late apoptotic, and necrotic cells after 48 h of treatment with the tested compounds (A). Percentage of CCRF-CEM cells in late apoptosis (B). Cells were stained with annexin V-FITC and PI (propidium iodide). Flow cytometry analyses were run on FACSCanto II flow cytometer (BD Biosciences, San Diego, CA, USA) and analysed using BD FACSDiva software. Graphs represent mean values ± s.e.m. *** p < 0.001 relative to control; ns—not significant. Statistical analysis for three to six independent replicates was performed using a one-way ANOVA analysis (GraphPad Software Inc., San Diego, CA, USA).

SMILES | EC50 [1] | EC50 [2] | EC50 [3] | solubility in DMSO [5] | SI (selectivity index), MCF-7 [1] | SI (selectivity index), CCRF-CEM [3] | EC50 [4] | EC50 [6] | EC50 [7] | cells in late apoptosis (CCRF-CEM cells; 30 µM, annexin V-FITC/PI) | induction of apoptosis (CCRF-CEM cells; 45 µM) | percent of apoptotic cells (CCRF-CEM cells; 45 µM, annexin V-FITC/PI)
O=C(Cn1cnc2cc(Br)c(Br)cc21)c1ccccc1 [Compound 4a] | 37.6 ± 3.4 µM | 111 ± 11.7 µM | 78.1 ± 5.58 µM |  | 1.37 | 0.66 | 51.4 ± 1.62 µM |  |  |  |  | 
O=C(Cn1cnc2cc(Br)c(Br)cc21)c1ccc(Cl)cc1Cl [Compound 4e] | 60.3 ± 6.2 µM | 67.98 ± 0.41 µM | 61.1 ± 2.76 µM |  | 0.95 | 0.94 |  |  |  |  |  | 
O=C(Cn1cnc2cc(Br)c(Br)cc21)c1ccc(Br)cc1 [Compound 4d] |  |  |  | sparingly soluble in DMSO |  |  |  |  |  |  |  | 
Brc1c(Br)c(Br)c2[nH]cnc2c1Br [4,5,6,7-tetrabromo-1H-benzimidazole] |  | 36.4 ± 0.7 µM |  |  |  |  |  | 23.6 ± 0.1 µM | 18.1 ± 0.6 µM |  |  | 
O=C(Cn1cnc2cc(Br)c(Br)cc21)c1ccc(Cl)cc1 [Compound 4c] | 49.1 ± 5.58 µM | 76.6 ± 3.08 µM | 56.6 ± 4.48 µM |  | 1.10 | 0.96 | 54.24 ± 0.52 µM |  |  |  |  | 
O=C(Cn1cnc2cc(Br)c(Br)cc21)c1c(Cl)cc(Cl)cc1Cl [Compound 4g] | 36.1 ± 1.47 µM | > 200 µM |  |  | 0.38 |  | 13.7 ± 0.63 µM |  |  |  |  | 
O=C(Cn1cnc2cc(Br)c(Br)cc21)c1c(F)cc(F)cc1F [Compound 4j] | 37.6 ± 3.58 µM | 94.3 ± 6.47 µM | 40.7 ± 1.03 µM |  | 1.30 | 1.20 | 48.8 ± 9.07 µM |  |  |  |  | 
O=C(Cn1cnc2cc(Br)c(Br)cc21)c1ccc(F)cc1F [Compound 4h] | 41.2 ± 3.85 µM | 54.1 ± 4.05 µM | 59.9 ± 4.4 µM |  | 1.40 | 0.96 | 57.6 ± 0.71 µM |  |  |  |  | 
O=C(Cn1cnc2cc(Br)c(Br)cc21)c1ccc(F)cc1 [Compound 4b] | 33 ± 2.63 µM | 54.5 ± 1.58 µM | 44.1 ± 3.04 µM |  | 1.70 | 1.27 | 56.1 ± 4.33 µM |  |  |  |  | 
O=C(Cn1cnc2cc(Br)c(Br)cc21)c1cc(F)ccc1F [Compound 4i] | 29.6 ± 2.24 µM | 37.9 ± 1.72 µM | 102 ± 8.62 µM |  | 1.61 | 0.47 | 47.8 ± 12 µM |  |  |  |  | 
O=C(Cn1cnc2cc(Br)c(Br)cc21)c1ccc(Cl)c(Cl)c1 [Compound 4f, 2-(5,6-dibromo-1H-benzimidazol-1-yl)-1-(3,4-dichlorophenyl)ethanone] | 26.4 ± 0.8 µM | 51.1 ± 2.78 µM | 27.5 ± 2.46 µM |  | 1.84 | 1.76 | 48.5 ± 4.5 µM |  |  |  | induced apoptosis effectively | 

Second part, led by results:

EC50 [1] | EC50 [2] | EC50 [3] | solubility in DMSO [5] | SMILES | SI (selectivity index), MCF-7 [1] | SI (selectivity index), CCRF-CEM [3] | EC50 [4] | EC50 [6] | EC50 [7] | cells in late apoptosis (CCRF-CEM cells; 30 µM, annexin V-FITC/PI) | induction of apoptosis (CCRF-CEM cells; 45 µM) | percent of apoptotic cells (CCRF-CEM cells; 45 µM, annexin V-FITC/PI)
37 ± 2.15 µM | 61.26 ± 0.45 µM | 51.2 ± 1.06 µM |  | O=C(Cn1cnc2c(Br)cc(Br)cc21)c1ccc(F)cc1F [Compound 5h] | 1.23 | 0.89 |  |  |  |  |  | 
27.8 ± 2.61 µM | 50.9 ± 2.84 µM | 50.5 ± 1.52 µM |  | O=C(Cn1cnc2c(Br)cc(Br)cc21)c1ccc(Br)cc1 [Compound 5d, 1-(4-bromophenyl)-2-(4,6-dibromo-1H-benzimidazol-1-yl)ethanone] | 1.62 | 0.89 | 45.1 ± 5.73 µM |  |  |  |  | 
32.8 ± 1.88 µM | 40 ± 5.78 µM | 40.6 ± 2.39 µM |  | O=C(Cn1cnc2c(Br)cc(Br)cc21)c1ccc(Cl)c(Cl)c1 [Compound 5f] | 1.32 | 1.06 | 43.2 ± 12.1 µM |  |  |  |  | 
45.93 ± 0.36 µM | 84.5 ± 3.09 µM |  |  | O=C(Cn1cnc2c(Br)cc(Br)cc21)c1ccc(F)cc1 [Compound 5b] | 1.07 |  | 49.2 ± 10.6 µM |  |  |  |  | 
44.8 ± 6.33 µM | 82.7 ± 10.6 µM | 46.2 ± 3.24 µM |  | O=C(Cn1cnc2c(Br)cc(Br)cc21)c1cc(F)ccc1F [Compound 5i] | 1.07 | 1.04 | 48.07 ± 0.04 µM |  |  |  |  | 
27.4 ± 1.57 µM | 46 ± 3.42 µM | 38.4 ± 1.39 µM |  | O=C(Cn1cnc2c(Br)cc(Br)cc21)c1ccc(Cl)cc1Cl [Compound 5e] | 1.25 | 0.89 | 34.4 ± 7.83 µM |  |  |  |  | 
28.4 ± 1.11 µM | 81.2 ± 6.68 µM | 183 ± 7.84 µM |  | O=C(Cn1cnc2c(Br)cc(Br)cc21)c1ccccc1 [Compound 5a] | 2.04 | 0.32 | 57.9 ± 0.88 µM |  |  |  |  | 
24 ± 2.33 µM | 41.3 ± 3.2 µM | 26.6 ± 0.31 µM |  | O=C(Cn1cnc2c(Br)cc(Br)cc21)c1c(Cl)cc(Cl)cc1Cl [Compound 5g, 2-(4,6-dibromo-1H-benzimidazol-1-yl)-1-(2,4,6-trichlorophenyl)ethanone] | 1.12 | 1.01 | 26.9 ± 1.62 µM |  |  | 32% | induced apoptosis effectively | 75.6%
42.2 ± 3.95 µM | 85.4 ± 3.16 µM | 34.4 ± 2.3 µM |  | O=C(Cn1cnc2c(Br)cc(Br)cc21)c1c(F)cc(F)cc1F [Compound 5j, 2-(4,6-dibromo-1H-benzimidazol-1-yl)-1-(2,4,6-trifluorophenyl)ethanone] | 1.45 | 1.77 | 61 ± 5.64 µM |  |  |  | induced apoptosis effectively | 
30.4 ± 2.31 µM | 46.7 ± 1.2 µM | 42.5 ± 8.36 µM |  | O=C(Cn1cnc2c(Br)cc(Br)cc21)c1ccc(Cl)cc1 [Compound 5c] | 1.29 | 0.92 | 39.1 ± 8.41 µM |  |  |  |  | 
